Assay results taken from PubChem BioAssay (NCI).
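Each compound was tested at five concentrations against cells in 96-well plates for 48 hours. TGI: concentration producing complete growth inhibition.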

Key:
Experiment in all cases: DTP human tumour cell line panel, 48 h
[1] = test system: UO-31 renal
[2] = test system: PC-3 prostate
[3] = test system: CCRF-CEM leukemia
[4] = test system: SF-295 CNS
[5] = test system: LOX IMVI melanoma
[6] = test system: HOP-92 NSCLC
[7] = test system: HCC-2998 colon
[8] = test system: SW-620 colon
[9] = test system: HS 578T breast
[10] = test system: NCI-H460 lung
[11] = test system: SR leukemia
[12] = test system: NCI-H23 lung
[13] = test system: HT29 colon
[14] = test system: SK-MEL-28 melanoma
[15] = test system: ACHN renal
[16] = test system: COLO 205 colon
[17] = test system: MDA-MB-231 breast
[18] = test system: OVCAR-5 ovarian
[19] = test system: RXF 393 renal
[20] = test system: CAKI-1 renal
[21] = test system: MDA-MB-435
[22] = test system: OVCAR-4 ovarian
[23] = test system: MALME-3M melanoma
[24] = test system: M14 melanoma
[25] = test system: SF-539 CNS
[26] = test system: NCI/ADR-RES ovarian
[27] = test system: MOLT-4 leukemia
[28] = test system: DU-145 prostate
[29] = test system: A498 renal
[30] = test system: SK-OV-3 ovarian
[31] = test system: EKVX NSCLC
[32] = test system: KM12 colon
[33] = test system: BT-549 breast
[34] = test system: SF-268 CNS
[35] = test system: MCF7 breast
[36] = test system: NCI-H226 lung
[37] = test system: U251 CNS
[38] = test system: MDA-N
[39] = test system: IGROV1 ovarian
[40] = test system: T-47D breast
[41] = test system: OVCAR-3 ovarian
[42] = test system: UACC-257 melanoma
[43] = test system: 786-0 renal
[44] = test system: TK-10 renal
[45] = test system: SK-MEL-2 melanoma
[46] = test system: RPMI-8226 leukemia
[47] = test system: HL-60(TB) leukemia
[48] = test system: HCT-15 colon
[49] = test system: SNB-19 CNS
[50] = test system: A549 NSCLC
[51] = test system: SNB-75 CNS
[52] = test system: K-562 leukemia
[53] = test system: SN12C renal
[54] = test system: OVCAR-8 ovarian
[55] = test system: HOP-62 NSCLC
[56] = test system: SK-MEL-5 melanoma
[57] = test system: NCI-H522 lung
[58] = test system: HCT-116 colon
[59] = test system: UACC-62 melanoma

c1cc(-c2ccsc2-c2ccsc2)cs1
TGI [1]: > 100 µM | TGI [2]: > 100 µM | TGI [3]: > 100 µM | TGI [4]: > 100 µM | TGI [5]: > 100 µM | TGI [6]: > 100 µM | TGI [7]: > 100 µM | TGI [8]: > 100 µM | TGI [9]: > 100 µM | TGI [10]: > 100 µM | TGI [11]: > 74.9 µM | TGI [12]: > 100 µM | TGI [13]: > 100 µM | TGI [14]: > 100 µM | TGI [15]: > 100 µM | TGI [16]: > 100 µM | TGI [17]: > 100 µM | TGI [18]: > 100 µM | TGI [19]: > 85.5 µM | TGI [20]: > 100 µM | TGI [21]: > 82.9 µM | TGI [22]: > 100 µM | TGI [23]: > 100 µM | TGI [24]: > 100 µM | TGI [25]: > 100 µM | TGI [26]: > 100 µM | TGI [27]: > 89 µM | TGI [28]: > 100 µM | TGI [29]: > 100 µM | TGI [30]: > 100 µM | TGI [31]: > 100 µM | TGI [32]: 99.7 µM | TGI [33]: > 100 µM | TGI [34]: > 100 µM | TGI [35]: > 100 µM | TGI [36]: > 71.7 µM | TGI [37]: > 100 µM | TGI [38]: > 72.5 µM | TGI [39]: > 100 µM | TGI [40]: > 100 µM | TGI [41]: > 100 µM | TGI [42]: > 100 µM | TGI [43]: > 100 µM | TGI [44]: > 100 µM | TGI [45]: > 59.1 µM | TGI [46]: > 100 µM | TGI [47]: > 100 µM | TGI [48]: > 100 µM | TGI [49]: > 100 µM | TGI [50]: > 100 µM | TGI [51]: > 100 µM | TGI [52]: > 100 µM | TGI [53]: > 100 µM | TGI [54]: > 100 µM | TGI [55]: > 100 µM | TGI [56]: > 100 µM | TGI [57]: > 100 µM | TGI [58]: > 100 µM | TGI [59]: > 100 µM

c1ccc2cc(CN3CCC(C4CCN(Cc5ccc6ccccc6c5)CC4)CC3)ccc2c1
TGI [1]: 3.03 µM | TGI [2]: 22.9 µM | TGI [3]: > 43.4 µM | TGI [4]: 3.74 µM | TGI [5]: 13.2 µM | TGI [6]: 12.2 µM | TGI [7]: 3.13 µM | TGI [8]: 15.6 µM | TGI [9]: 6.6 µM | TGI [10]: 11 µM | TGI [11]: 15.6 µM | TGI [12]: 26.9 µM | TGI [13]: 6.42 µM | TGI [14]: 3.93 µM | TGI [15]: 17 µM | TGI [16]: 3.96 µM | TGI [17]: 22.1 µM | TGI [18]: 24.9 µM | TGI [19]: 8.51 µM | TGI [20]: 15 µM | TGI [21]: 3.09 µM | TGI [22]: 21.7 µM | TGI [23]: 3.71 µM | TGI [24]: 3.71 µM | TGI [25]: 4.15 µM | TGI [26]: 22.1 µM | TGI [27]: 33.3 µM | TGI [28]: 38.2 µM | TGI [29]: 26.2 µM | TGI [30]: 22.4 µM | TGI [31]: 29.6 µM | TGI [32]: 7.99 µM | TGI [33]: 27.4 µM | TGI [34]: 25.8 µM | TGI [35]: 8.66 µM | TGI [36]: 33.1 µM | TGI [37]: 8.49 µM | TGI [38]: 3.91 µM | TGI [39]: 22.5 µM | TGI [40]: > 22.8 µM | TGI [41]: 11.1 µM | TGI [42]: 3.68 µM | TGI [43]: 11.1 µM | TGI [44]: 13.1 µM | TGI [45]: 4.87 µM | TGI [46]: 7.44 µM | TGI [47]: 4.45 µM | TGI [48]: 15.1 µM | TGI [49]: 27.2 µM | TGI [50]: 17.1 µM | TGI [51]: 6.8 µM | TGI [52]: > 100 µM | TGI [53]: 44.5 µM | TGI [54]: 17.9 µM | TGI [55]: 7.84 µM | TGI [56]: 3.38 µM | TGI [57]: 4.28 µM | TGI [58]: 18.4 µM | TGI [59]: 3.91 µM

Cn1c(=O)cc(NNc2ccccc2)[nH]c1=O
TGI [1]: > 100 µM | TGI [2]: > 100 µM | TGI [3]: 90.4 µM | TGI [4]: > 100 µM | TGI [5]: 28.3 µM | TGI [6]: 44.7 µM | TGI [7]: > 100 µM | TGI [8]: 31.3 µM | TGI [9]: > 100 µM | TGI [10]: > 100 µM | TGI [11]: 57.8 µM | TGI [12]: > 100 µM | TGI [13]: 29.1 µM | TGI [14]: 60.4 µM | TGI [15]: > 100 µM | TGI [16]: > 100 µM | TGI [17]: 33.5 µM | TGI [18]: > 100 µM | TGI [19]: 33.6 µM | TGI [20]: 29.2 µM | TGI [21]: 75 µM | TGI [22]: > 100 µM | TGI [23]: 75.9 µM | TGI [24]: 89.9 µM | TGI [25]: > 100 µM | TGI [26]: > 100 µM | TGI [27]: > 100 µM | TGI [28]: > 100 µM | TGI [29]: > 100 µM | TGI [30]: > 100 µM | TGI [31]: > 100 µM | TGI [32]: 49.9 µM | TGI [33]: > 100 µM | TGI [34]: > 100 µM | TGI [35]: 12.8 µM | TGI [36]: > 100 µM | TGI [37]: 31.7 µM | TGI [38]: > 100 µM | TGI [39]: 85.7 µM | TGI [40]: 38.9 µM | TGI [41]: 30.4 µM | TGI [42]: > 100 µM | TGI [43]: 30 µM | TGI [44]: 65.9 µM | TGI [45]: > 100 µM | TGI [46]: 48.1 µM | TGI [47]: 56.8 µM | TGI [48]: 30.1 µM | TGI [49]: > 100 µM | TGI [50]: > 100 µM | TGI [51]: > 100 µM | TGI [52]: > 100 µM | TGI [53]: > 100 µM | TGI [54]: 42.1 µM | TGI [55]: > 100 µM | TGI [56]: > 100 µM | TGI [57]: 28.9 µM | TGI [58]: 31.6 µM | TGI [59]: > 100 µM
